Values joined by “and” are separate entries in the source; they are usually repeats but may differ in a detail not shown here. Equal values may be shown once. Where a SMILES comes first, the peptide text is derived from it. [ ]: non-standard residue; d: D form. pGlu = O=C1CC[C@@H](C(=O)O)N1
Experiments:
[1] = test system: diet-induced obese male mice; assay: 3-day food intake and body weight under daily dosing; assay type: in vivo, mouse; conditions: for Food Intake: 50 mg/kg
Experimental: Fig. 5 Functional studies of […] in feeding and energy balance in mice. a Schematic of the primary amino acid sequence for full-length mouse GDF15 preproprotein and annotation of CAP-GDF15 sequence as well as the canonical GDF15 hormone sequence. b–d Food intake (b), respiratory exchange ratio (RER, c), and ambulatory activity (d) of 12–16-week diet-induced obese male mice following a single treatment of CAP-GDF15 (50 mg/kg, intraperitoneal) or vehicle control. e–g Food intake (e), RER (f), and ambulatory activity (g) of 12–16-week diet-induced obese male mice following a single treatment of scrambled CAP-GDF15 (50 mg/kg, intraperitoneal, scrambled sequence: pGlu-[…]-NH2) or vehicle control. h, i 3-day food intake (h) and body weight (i) of 12–16-week diet-induced obese male mice following treatment with CAP-GDF15 or scrambled CAP-GDF15 (50 mg/kg/day, IP), or vehicle control. Data are shown as means ± SEM. b–d, N = 12 mice/group; for e, f N = 8 mice/group; for h N = 7 food cages for vehicle and CAP-GDF15 groups and N = 5 for the scrambled peptide group; for i N = 14 mice for the vehicle group, N = 13 for the CAP-GDF15 group, and N = 5 for the scrambled peptide group. b–i injection occurred at time T = 0 (5:00 pm) and data were collected for the following 16 hrs. For (b-i), p values were calculated by two-way ANOVA. Source data are provided as a Source Data file.
Lastly, to determine whether the acute food intake suppressive effects of CAP-GDF15 would lead to long-term suppression of feeding and obesity, we administered CAP-GDF15 or scrambled CAP-GDF15 (50 mg/kg/day, IP), or vehicle control to diet-induced obese mice. Food intake and body weight were monitored over a three-day period. A durable suppression of food intake in CAP-GDF15-treated mice was over the three-day experiment (Vehicle, 7.3 ± 0.5 g/mouse; […], 4.1 ± 0.9 g/mouse/day, P < 0.05, Fig. 5h). Consequently, and as expected, an increasing reduction in body weight was also detected (Vehicle, +0.1 ± 0.3 g/mouse; CAP-GDF15, −1.9 ± 0.3 g/mouse, P < 0.001, Fig. 5i). Importantly, mice treated with the scrambled CAP-GDF15 peptide were indistinguishable in body weight or food intake from control mice (P > 0.05 versus vehicle-treated mice, Fig. 5h, i).
Animal experiments were performed according to a procedure approved by the Stanford University Administrative Panel on Laboratory Animal Care. Mice were maintained in 12-h light-dark cycles at 22 °C and about 50% relative humidity and fed a standard irradiated rodent diet. Where indicated, a high-fat diet (D12492, Research Diets 60% kcal from fat) was used. Male C57BL/6 J (stock number 000664) and male C57BL/6 J DIO mice were purchased from the Jackson Laboratory (stock number 380050). For studies in high-fat diet-fed mice, peptides were dissolved in 18:1:1 (by volume) of saline:Kolliphor EL (Sigma Aldrich):DMSO and administered to mice by intraperitoneal injections at a volume of 10 µl/g at the indicated doses for the indicated times. For lipopolysacchardide injection, LPS (Sigma, #L2880-10MG) was dissolved in saline and administered to mice at a volume of 5 µl/g at indicated dose. For fasting, food was removed from mice for 16 h. For running, a six-lane Columbus Instruments animal treadmill (product 1055-SRM-D65) was used with following 1 h protocol: 10 min at 6 m/min, 50 min at 18 m/min, and increase every 2 min by 2 m/min for the last 10 minutes, all at 12° incline. For all treatment experiments, mice were mock injected with the vehicle for 3–5 days until body weights were stabilized. Heparin plasma was harvested by submandibular bleed. For all experiments, mice were randomly assigned to treatment groups. Experimenters were not blinded to groups.

[2] = CAP-GDF15 plasma concentration after administration; assay type: in vivo, mouse; conditions: for Plasma concentration after administration (Supplementary Figure 5a): 50 mg/kg, unit not given
Experimental: To test this possibility, we administered a single dose of CAP-GDF15 (50 mg/kg, intraperitoneally) to diet-induced obese mice and measured whole body parameters of energy balance in metabolic chambers. At this dose, concentrations of plasma CAP-GDF15 rose by 5-fold from baseline at 30 min post-administration (Supplementary Fig. 5A). […] A corresponding and expected suppression of respiratory exchange ratio (RER) was also observed (Fig. 5c).
Supplementary Figure 5. Additional measurements from metabolic chambers of mice treated with CAP-GDF15. a CAP-GDF15 plasma concentration after administration of CAP-GDF15 (50 mg/kg, intraperitoneal) or vehicle control. b-c VO2 (b) and VCO2 (c) of 12-16-week diet-induced obese male mice following a single treatment of CAP-GDF15 (50 mg/kg, intraperitoneal) or vehicle control. d-e VO2 (d) and VCO2 (e) of 12-16-week diet-induced obese male mice following a single treatment of scrambled CAP-GDF15 (50 mg/kg, intraperitoneal, scrambled sequence: p[…]-NH2) or vehicle control. f Acute food intake of 12-16-week diet-induced obese male mice following a single treatment of CAP-GDF15 (50 mg/kg, intraperitoneal), uncapped CAP-GDF15 (50 mg/kg, intraperitoneal), or vehicle control. For (a), N=3/group; (b-c), N=12/group; for (d-e), N=8/group; for (f), N=5/group.
For (a-f), injection occurred at time T=0 (5:00pm). Data are shown as means ± SEM. For (b-i), p values were calculated by two-way ANOVA. Source data are provided as a Source Data

CC(C)C[C@H](NC(=O)[C@@H]1CCC(=O)N1)C(=O)N[C@@H](CCC(=O)O)C(=O)N[C@@H](CC(C)C)C(=O)N[C@@H](CCCNC(=N)N)C(=O)N[C@@H](CC(C)C)C(=O)N[C@@H](CCCNC(=N)N)C(=O)N[C@H](C(=O)N[C@@H](C)C(=O)N[C@@H](C)C(=O)NCC(=O)N[C@@H](CCCNC(=N)N)C(N)=O)C(C)C [CAP-GDF15] ([pGlu]LELRLRVAAGR-NH2)
Food Intake ([1]; 24 h, individual animal 1): 0.5 g
Food Intake ([1]; 24 h, individual animal 2): 2.2 g
Food Intake ([1]; 24 h, individual animal 3): 1.3 g
Food Intake ([1]; 24 h, individual animal 4): 1.4 g
Food Intake ([1]; 24 h, individual animal 5): 0.3 g
Food Intake ([1]; 24 h, individual animal 6): 0.825 g
Food Intake ([1]; 24 h, individual animal 7): 0.525 g
Food Intake ([1]; 48 h, individual animal 1): 1.2 g
Food Intake ([1]; 48 h, individual animal 2): 5 g
Food Intake ([1]; 48 h, individual animal 3): 2.9 g
Food Intake ([1]; 48 h, individual animal 4): 4.1 g
Food Intake ([1]; 48 h, individual animal 5): 0.6 g
Food Intake ([1]; 48 h, individual animal 6): 1.8 g
Food Intake ([1]; 48 h, individual animal 7): 1.325 g
Food Intake ([1]; 72 h, individual animal 1): 2.9 g
Food Intake ([1]; 72 h, individual animal 2): 7.8 g
Food Intake ([1]; 72 h, individual animal 3): 4.9 g
Food Intake ([1]; 72 h, individual animal 4): 6.7 g
Food Intake ([1]; 72 h, individual animal 5): 0.8 g
Food Intake ([1]; 72 h, individual animal 6): 2.95 g
Food Intake ([1]; 72 h, individual animal 7): 2.775 g
body weight change over three days ([1]; 50 mg/kg/day IP, diet-induced obese mice, mean ± SEM, N = 13 mice): −1.9 ± 0.3 g/mouse
rise of plasma CAP-GDF15 concentration from baseline ([2]; 50 mg/kg intraperitoneal, 30 min post-administration, N = 3/group): ~ 5 fold and 5 fold
Plasma concentration after administration (Supplementary Figure 5a) ([2]; 0 minutes (same values as vehicle), animal 1): 2.565
Plasma concentration after administration (Supplementary Figure 5a) ([2]; 0 minutes (same values as vehicle), animal 2): 0.7876
Plasma concentration after administration (Supplementary Figure 5a) ([2]; 0 minutes (same values as vehicle), animal 3): 0.4564
Plasma concentration after administration (Supplementary Figure 5a) ([2]; 10 minutes, animal 1): 3.639
Plasma concentration after administration (Supplementary Figure 5a) ([2]; 10 minutes, animal 2): 4.514
Plasma concentration after administration (Supplementary Figure 5a) ([2]; 10 minutes, animal 3): 3.221
Plasma concentration after administration (Supplementary Figure 5a) ([2]; 30 minutes, animal 1): 2.641
Plasma concentration after administration (Supplementary Figure 5a) ([2]; 30 minutes, animal 2): 3.3984
Plasma concentration after administration (Supplementary Figure 5a) ([2]; 30 minutes, animal 3): 2.342
Plasma concentration after administration (Supplementary Figure 5a) ([2]; 60 minutes, animal 1): 0.6432
Plasma concentration after administration (Supplementary Figure 5a) ([2]; 60 minutes, animal 2): 0.7838
Plasma concentration after administration (Supplementary Figure 5a) ([2]; 60 minutes, animal 3): 0.7186
Cmax ([2]; mouse, plasma, ip, 50 mg/kg intraperitoneal, from approximately 1 nM endogenous level, read-out: maximum plasma concentration after dosing, as read from the figure by a reviewer): 4 nM
